Reference: PubChem BioAssay AID330 (DTP/NCI, 2004)
“And” between values parts separate entries of the source, which are not always exact repeats. Identical values can stand only once. Inconclusive results and toxic doses are left out. Rule for the calls: active = survival T/C of 150% or more; inactive = T/C below 125% in these data.

Test system: P388 leukemia ip, CD2F1 mice, survival T/C
Test: NCI In Vivo Anticancer Drug Screen. Data for tumor model P388 Leukemia (intraperitoneal) in CD2F1 (CDF1) mice
Conditions: endpoint: median survival time, higher = longer survival
Procedure, shortened: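 Mice carrying the transplanted tumor received test compound or vehicle. Survival was recorded in each group, and the value is the treated-group measurement divided by that of the vehicle-treated control group.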

[1] = dose: 100.0 mg/kg/injection, schedule: Q01DX009 (ip), vehicle: saline with Tween-80
[2] = dose: 200.0 mg/kg/injection, schedule: Q01DX009 (ip), vehicle: saline with Tween-80
[3] = dose: 400.0 mg/kg/injection, schedule: Q01DX009 (ip), vehicle: saline with Tween-80
[4] = dose: 12.5 mg/kg/injection, schedule: Q04DX003 (ip), vehicle: saline
[5] = dose: 25.0 mg/kg/injection, schedule: Q04DX003 (ip), vehicle: saline
[6] = dose: 50.0 mg/kg/injection, schedule: Q04DX003 (ip), vehicle: saline
[7] = dose: 50.0 mg/kg/injection, schedule: Q01DX009 (ip), vehicle: saline with Tween-80
[8] = dose: 60.0 mg/kg/injection, schedule: Q01DX005 (ip), vehicle: saline with Tween-80

Measured: T/C

CC(=O)OCC1OC(n2cc(C)c(=O)[nH]c2=O)CC1OC(C)=O (centres undefined)
inactive: [1] 110 % of control | dose: 100.0 mg/kg/injection, schedule: Q04DX003 (ip), vehicle: saline with Tween-80 100 % of control | [2] 110 % of control | dose: 200.0 mg/kg/injection, schedule: Q04DX003 (ip), vehicle: saline with Tween-80 100 % of control | [3] 110 % of control | dose: 400.0 mg/kg/injection, schedule: Q04DX003 (ip), vehicle: saline with Tween-80 104 % of control

CCSC(=O)N1CCN(C(=O)SCC)CC1
inactive: [4] 100 % of control | [5] 100 % of control | [6] 101 % of control | dose: 100.0 mg/kg/injection, schedule: Q04DX003 (ip), vehicle: saline 108 % of control

CC1(C)CC(=O)C(C(c2cccc(O)c2O)C2C(=O)CC(C)(C)CC2=O)C(=O)C1
inactive: dose: 12.5 mg/kg/injection, schedule: Q01DX009 (ip), vehicle: saline with Tween-80 100 % of control and 96 % of control | dose: 25.0 mg/kg/injection, schedule: Q01DX009 (ip), vehicle: saline with Tween-80 92 % of control | [7] 93 % of control and 96 % of control | [1] 92 % of control and 94 % of control

C=C1C(=O)OC2/C=C(\C)C(O)C/C=C(/C)C(OC(=O)/C(C)=C\C)C(O)C12 (centres undefined)
inactive: dose: 6125.0 micrograms/kg/injection, schedule: Q01DX005 (ip), vehicle: Klucel (hydroxypropylcellulose) (HPC) 110 % of control | dose: 12250.0 micrograms/kg/injection, schedule: Q01DX005 (ip), vehicle: Klucel (hydroxypropylcellulose) (HPC) 115 % of control | dose: 24500.0 micrograms/kg/injection, schedule: Q01DX005 (ip), vehicle: Klucel (hydroxypropylcellulose) (HPC) 109 % of control | dose: 49000.0 micrograms/kg/injection, schedule: Q01DX005 (ip), vehicle: Klucel (hydroxypropylcellulose) (HPC) 114 % of control

Cc1ccc(C(O)(CNC2CCCCC2)c2ccccc2)cc1 (centres undefined)
inactive: dose: 25.0 mg/kg/injection, schedule: Q01DX009 (ip), vehicle: saline sonified 104 % of control | dose: 50.0 mg/kg/injection, schedule: Q01DX009 (ip), vehicle: saline sonified 104 % of control

CCCC(NC(=O)C(F)(F)F)C(=O)O (centres undefined)
inactive: [7] 91 % of control | [1] 93 % of control | [2] 106 % of control

COc1cccc(NCNC2Nc3ccccc3N2)c1
inactive: dose: 15.0 mg/kg/injection, schedule: Q01DX005 (ip), vehicle: saline with Tween-80 106 % of control | dose: 30.0 mg/kg/injection, schedule: Q01DX005 (ip), vehicle: saline with Tween-80 107 % of control | [8] 107 % of control

CCOC(=O)CN(C=O)C(C)c1ccccc1 (centres undefined)
inactive: dose: 25.0 mg/kg/injection, schedule: Q01DX009 (ip), vehicle: saline 114 % of control | dose: 50.0 mg/kg/injection, schedule: Q01DX009 (ip), vehicle: saline 99 % of control | dose: 100.0 mg/kg/injection, schedule: Q01DX009 (ip), vehicle: saline 98 % of control | dose: 200.0 mg/kg/injection, schedule: Q01DX009 (ip), vehicle: saline 99 % of control

c1ccc2c(c1)CCNC2C1NCCc2ccccc21 (centres undefined)
inactive: dose: 12.5 mg/kg/injection, schedule: Q01DX009 (ip), vehicle: Klucel (hydroxypropylcellulose) (HPC) 107 % of control | dose: 25.0 mg/kg/injection, schedule: Q01DX009 (ip), vehicle: Klucel (hydroxypropylcellulose) (HPC) 100 % of control | dose: 50.0 mg/kg/injection, schedule: Q01DX009 (ip), vehicle: Klucel (hydroxypropylcellulose) (HPC) 104 % of control | dose: 100.0 mg/kg/injection, schedule: Q01DX001 (ip), vehicle: Klucel (hydroxypropylcellulose) (HPC) 109 % of control | dose: 100.0 mg/kg/injection, schedule: Q01DX009 (ip), vehicle: Klucel (hydroxypropylcellulose) (HPC) 105 % of control and 91 % of control | dose: 200.0 mg/kg/injection, schedule: Q01DX001 (ip), vehicle: Klucel (hydroxypropylcellulose) (HPC) 107 % of control

O=C(O)CS(=O)NN(c1ccccc1)c1ccccc1 (centres undefined)
inactive: dose: 100.0 mg/kg/injection, schedule: Q04DX002 (ip), vehicle: saline with Tween-80 102 % of control | dose: 200.0 mg/kg/injection, schedule: Q04DX002 (ip), vehicle: saline with Tween-80 102 % of control

O=S1(=O)C[CH-]C1.[C-]#[O+].[C-]#[O+].[C-]#[O+].[W].[c-]1[c-][c-][cH-][c-]1
inactive: dose: 0.78 mg/kg/injection, schedule: Q01DX009 (ip), vehicle: saline with Tween-80 98 % of control | dose: 1.56 mg/kg/injection, schedule: Q01DX009 (ip), vehicle: saline with Tween-80 93 % of control | dose: 3.13 mg/kg/injection, schedule: Q01DX009 (ip), vehicle: saline with Tween-80 94 % of control | dose: 6.25 mg/kg/injection, schedule: Q01DX009 (ip), vehicle: saline with Tween-80 93 % of control

O=C(NC(Cc1ccccc1)C(=O)O)OCc1ccccc1 (centres undefined)
inactive: dose: 50.0 mg/kg/injection, schedule: Q01DX005 (ip), vehicle: Klucel (hydroxypropylcellulose) (HPC) 100 % of control | dose: 100.0 mg/kg/injection, schedule: Q01DX005 (ip), vehicle: Klucel (hydroxypropylcellulose) (HPC) 92 % of control | dose: 177.0 mg/kg/injection, schedule: Q01DX009 (ip), vehicle: saline with Tween-80 107 % of control | dose: 200.0 mg/kg/injection, schedule: Q01DX005 (ip), vehicle: Klucel (hydroxypropylcellulose) (HPC) 102 % of control | dose: 266.0 mg/kg/injection, schedule: Q01DX009 (ip), vehicle: saline with Tween-80 109 % of control | [3] 116 % of control

COC(=O)C1=CO[C@@H](OC2OC(CO)C(O)C(O)C2O)[C@@H]2[C@@H](C)[C@@H](O)[C@@H](O)[C@]12O (some centres undefined)
inactive: dose: 25.0 mg/kg/injection, schedule: Q01DX005 (ip), vehicle: saline 102 % of control | dose: 50.0 mg/kg/injection, schedule: Q01DX005 (ip), vehicle: saline 102 % of control | dose: 100.0 mg/kg/injection, schedule: Q01DX005 (ip), vehicle: saline 100 % of control | dose: 200.0 mg/kg/injection, schedule: Q01DX005 (ip), vehicle: saline 108 % of control

O=C(Nc1ccc(Cl)cc1)Oc1ccc(Cl)cc1C(=O)c1ccccc1
inactive: [8] 111 % of control | dose: 120.0 mg/kg/injection, schedule: Q01DX005 (ip), vehicle: saline with Tween-80 110 % of control | dose: 240.0 mg/kg/injection, schedule: Q01DX005 (ip), vehicle: saline with Tween-80 112 % of control

CN(C)C1C(=O)C(C(=O)NP(=O)(NCCCO)N(CCCl)CCCl)=C(O)C2(O)C(=O)C3=C(O)c4c(O)cccc4C(C)(O)C3CC12 (centres undefined)
inactive: dose: 0.25 mg/kg/injection, schedule: Q01DX005 (ip), vehicle: saline 92 % of control | dose: 0.5 mg/kg/injection, schedule: Q01DX005 (ip), vehicle: saline 102 % of control | dose: 1.0 mg/kg/injection, schedule: Q01DX005 (ip), vehicle: saline 104 % of control | dose: 2.0 mg/kg/injection, schedule: Q01DX005 (ip), vehicle: saline 100 % of control | dose: 3.13 mg/kg/injection, schedule: Q04DX003 (ip), vehicle: saline 98 % of control | dose: 4.0 mg/kg/injection, schedule: Q01DX005 (ip), vehicle: saline 101 % of control | dose: 6.25 mg/kg/injection, schedule: Q04DX003 (ip), vehicle: saline 102 % of control | dose: 8.0 mg/kg/injection, schedule: Q01DX005 (ip), vehicle: saline 101 % of control | [4] 103 % of control | [5] 107 % of control | [6] 108 % of control

Cc1ccccc1Nc1ccc([N+](=O)[O-])c2nonc12
inactive: dose: 50.0 mg/kg/injection, schedule: Q01DX005 (ip), vehicle: saline with Tween-80 103 % of control | dose: 100.0 mg/kg/injection, schedule: Q01DX005 (ip), vehicle: saline with Tween-80 98 % of control | dose: 200.0 mg/kg/injection, schedule: Q01DX005 (ip), vehicle: saline with Tween-80 92 % of control
